In patent publication US20220119460A1, “Means and Methods to Overrule Glucose-Mediated Repression of Respiration in Yeast” (priority 2019, published 2022):

Legend:
[1] = test system: S. cerevisiae strain AN63; assay: Population growth lag time measurement, gradual glucose-to-galactose shift with antimycin A; type: cell-based; details: 3 μg/ml antimycin A in medium; 0.5% glucose plus 5% galactose; wild type and 41 respiratory deletion mutants (FIG. 2B)
Protocol: Population Growth Lag Time Measurements (Antimycin a Treatment and Glucose-to-Galactose Shift).
All population growth measurements were performed using Bioscreen C machines (Growth Curves USA). For the gradual shift experiments, cells were inoculated in a 96-well plate containing YP plus 5% glucose (high-glucose [HG]) medium and serially diluted for growth overnight at 30° C. shaking at 900 rpm. Cultures at an OD600 of 0.1 were transferred to a new plate and serially diluted in fresh HG medium for growth overnight. The next day, cultures at an OD600 of 0.1 were washed three times into YP plus 0.5% glucose (low glucose [LG]) plus the appropriate carbohydrate source, with or without 3 μg/ml of antimycin A, and diluted so that the initial cell concentration for the Bioscreen C measurements was 10^5 cells/ml. […]
where the cx subscript stands for corrected and the me subscript stands for measured.
(§1) The growth rate was then obtained by calculating the discrete derivative of In(OD600,me) versus time. […] In the case of two exponential phases in the growth curve (i.e., conditions with a mix of carbon sources in the medium), the maximum growth rate for each phase (maxR1, maxR2) was detected. Once these parameters were determined, the lag time was calculated by the time difference between two time points: the start and the end. […]

[2] = test system: S. cerevisiae strain AN63; assay: Growth rate in stable sugar conditions (5% galactose) with antimycin A; type: cell-based; details: 41 respiratory deletion mutants, compared with slowest growing mutants without the compound (FIG. 2D)
Protocol: All population growth measurements were performed using Bioscreen C machines (Growth Curves USA). For the gradual shift experiments, cells were inoculated in a 96-well plate containing YP plus 5% glucose (high-glucose [HG]) medium and serially diluted for growth overnight at 30° C. shaking at 900 rpm. Cultures at an OD600 of 0.1 were transferred to a new plate and serially diluted in fresh HG medium for growth overnight. The next day, cultures at an OD600 of 0.1 were washed three times into YP plus 0.5% glucose (low glucose [LG]) plus the appropriate carbohydrate source, with or without 3 μg/ml of antimycin A, and diluted so that the initial cell concentration for the Bioscreen C measurements was 10^5 cells/ml. OD600 measurements were taken every 15 min for 7 days or until the cultures reached stationary phase.
The same procedure was followed for the stationary growth experiments, replacing the HG medium from pregrowth and the final growth medium with 5% galactose. […]
as §1

## antimycin A
[1]
  prolongation of the lag times: up to 2.2 fold
[2]
  growth rate in the presence of antimycin A: equally low growth rates
